Test results taken from patent US20260176320A1, “MODULATORS OF G-PROTEIN COUPLED RECEPTORS” (priority 2018, published 2026).
Like-named read-outs stand apart in the source and are kept apart here. Numbered stars: 1 amine (or outer) side, 2 acyl side, 3 side chain; on linkers, the order of the positions; unused ones are H or OH. Square brackets hold non-standard residues; d marks the D form. Side chains are listed from the residue outwards. Peptide text beside a SMILES is read from it. * marks the point of attachment. X8 = O=C([C@@H](Cc1nn[nH]n1)N[*:1])[*:2]; γGlu = O=C(O)[C@H](CCC(=O)[*:2])N[*:1]; X2 = O=C(CSCC(=O)*)NCCN1C(=O)CSC1=O; Palmitoyl = CCCCCCCCCCCCCCCC(=O)*; X6 = O=C(CSCC(=O)*)NCCN1CCCCC1=O; Aib = CC(C)(N)C(=O)O

Tests used:
GIP-R = biological target: T1, GIP-R (Homo sapiens, UniProt P48546); experiment: HitHunter cAMP assay (GIP-R); format: cell-based; details: cAMP; for Emax: read-out: (Emax) GIP-R
T1 sequence (P48546 22-466): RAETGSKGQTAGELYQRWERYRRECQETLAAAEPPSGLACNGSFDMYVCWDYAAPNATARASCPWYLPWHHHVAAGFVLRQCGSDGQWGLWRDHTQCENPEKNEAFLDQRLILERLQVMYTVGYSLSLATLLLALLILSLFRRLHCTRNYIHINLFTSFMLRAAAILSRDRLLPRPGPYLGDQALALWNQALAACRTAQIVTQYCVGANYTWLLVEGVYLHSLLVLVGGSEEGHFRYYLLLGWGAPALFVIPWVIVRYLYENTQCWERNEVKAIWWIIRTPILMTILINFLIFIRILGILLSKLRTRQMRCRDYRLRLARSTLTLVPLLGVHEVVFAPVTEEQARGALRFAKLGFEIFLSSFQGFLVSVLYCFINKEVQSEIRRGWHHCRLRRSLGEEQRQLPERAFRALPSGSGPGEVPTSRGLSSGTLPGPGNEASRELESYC
Protocol: (§1) Suspension cells were harvested and resuspended in 1×HBSS (+10 mM HEPES, 625 μM IBMX, 0.2% BSA) according to the following procedure: 5 μL of 2× cell suspension+1× antibody were added to each well, where the optimal cell density was 10,000 cells per well in a low volume 384-well plate. Agonist serial dilutions in a separate 384 well dilution plate in a 22-point series of 2× dilutions of agonist in DMSO were performed as follows. 80 μL of the highest concentration of Agonist/DMSO was added to well No. 1. 40 μL was removed from well No. 1 and added it to well No. 2, followed by gentle mixing. […] This process was repeated until well No. 22. Additional serial dilutions for additional agonists were set up in a similar manner. 50 nL of each 2× agonist serial dilution was added in duplicate to the designated agonist rows of the assay plate using the Labcyte ECHO. Assay plate was incubated for 30 minutes at room temperature. Following agonist incubation, 5 μL of cAMP Antibody Reagent was added to all wells. […] Plates were spun down briefly. Assay plate was incubated for 1 hour at room temperature in the dark for the immunocompetition reaction to occur. […] Plates were spun down briefly. Assay plate was incubated O/N at room temperature in the dark. Samples were read on Tecan i-control plate reader using luminescence mode with 300 ms integration time. Data analysis was performed using GraphPad Prism.

GLP-1R = GLP-1R (Homo sapiens, UniProt P43220); experiment: HitHunter cAMP assay (GLP-1R); format: cell-based; details: cAMP; for Emax: read-out: (Emax) GLP-1R
Protocol: as §1

[1] = Table 3A, read-out: EC50 GIP-R/nM
[2] = Table 3A, read-out: EC50 GLP-1R/nM

Chain of GLP-1R (P43220 24-463): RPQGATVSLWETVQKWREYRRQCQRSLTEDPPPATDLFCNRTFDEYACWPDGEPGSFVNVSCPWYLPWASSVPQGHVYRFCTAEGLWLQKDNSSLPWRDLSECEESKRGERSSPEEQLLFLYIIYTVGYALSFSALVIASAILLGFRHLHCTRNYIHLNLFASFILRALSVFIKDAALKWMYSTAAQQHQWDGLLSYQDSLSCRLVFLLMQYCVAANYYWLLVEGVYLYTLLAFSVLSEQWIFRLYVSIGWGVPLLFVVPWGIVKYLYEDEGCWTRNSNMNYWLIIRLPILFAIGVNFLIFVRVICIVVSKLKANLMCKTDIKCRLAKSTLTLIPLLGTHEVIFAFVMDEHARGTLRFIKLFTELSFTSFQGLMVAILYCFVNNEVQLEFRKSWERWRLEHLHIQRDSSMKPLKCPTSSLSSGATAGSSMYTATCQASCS

Row | SMILES | Emax (GIP-R; Table 3A) [%] | EC50 (GIP-R; [1]) [nM] | Emax (GLP-1R; Table 3A) [%] | EC50 (GLP-1R; [2]) [nM] | EC50 (GIP-R; EC50 GIP-R/nM, Table 3) [nM] | EC50 (GIP-R; EC50 GIP-R/nM, Table 3A) [nM] | Emax (GIP-R; Table 3) [%] | EC50 (GLP-1R; EC50 GLP-1R/nM, Table 3) [nM] | EC50 (GLP-1R; EC50 GLP-1R/nM, Table 3A) [nM] | Emax (GLP-1R; Table 3) [%] | Emax at 1 µM (GIP-R; read-out: (Emax) GIP-R at 1 μM, Table 3, at 1 μM) [%] | EC50 (GIP-R; read-out: EC50 GIP-R/nM, Table 3A) [nM] | EC50 (GIP-R; Table 3, read-out: EC50 GIP-R/nM) [nM] | EC50 (GLP-1R; Table 3, read-out: EC50 GLP-1R/nM) [nM]
1 | CCCCCCCCCCCCCCCC(=O)N[C@@H](CCC(=O)NCCCC[C@H](NC(=O)[C@H](CO)NC(=O)[C@@H]1CCCN1C(=O)[C@@H]1CCCN1C(=O)[C@@H]1CCCN1C(=O)[C@H](C)NC(=O)CNC(=O)[C@H](CO)NC(=O)[C@H](CO)NC(=O)[C@@H]1CCCN1C(=O)CNC(=O)CNC(=O)[C@H](C)NC(=O)[C@H](CC(C)C)NC(=O)[C@H](CC(C)C)NC(=O)[C@H](Cc1c[nH]c2ccccc12)NC(=O)[C@H](CC(N)=O)NC(=O)[C@@H](NC(=O)[C@H](Cc1ccccc1)NC(=O)[C@H](CCC(=O)O)NC(=O)C(C)(C)NC(=O)[C@H](C)NC(=O)[C@H](C)NC(=O)[C@H](CCC(N)=O)NC(=O)[C@H](CCCCN)NC(=O)[C@H](CC(=O)O)NC(=O)[C@H](CC(C)C)NC(=O)[C@H](Cc1ccc(O)cc1)NC(=O)[C@@H](NC(=O)[C@H](CO)NC(=O)[C@H](Cc1ccc(O)cc1)NC(=O)[C@H](CC(=O)O)NC(=O)[C@H](CO)NC(=O)[C@@H](NC(=O)[C@H](Cc1ccccc1)NC(=O)[C@@H](NC(=O)CNC(=O)[C@@H](Cc1nn[nH]n1)NC(=O)CSCC(=O)NCCN1CCCCC1=O)[C@@H](C)O)[C@@H](C)O)[C@@H](C)CC)C(C)C)C(N)=O)C(=O)O [Compound 224] (X6-[X8]GTFTSDYSIYLDKQAA[Aib]EFVNWLLAGGPSSGAPPPSK([γGlu-Palmitoyl])-NH2) | 76 | 10 to 100 | 98 | 0.1 to 1 |  |  |  |  |  |  |  |  |  | 
2 | CCCCCCCCCCCCCCCC(=O)N[C@@H](CCC(=O)NCCCC[C@H](NC(=O)[C@H](CO)NC(=O)[C@@H]1CCCN1C(=O)[C@@H]1CCCN1C(=O)[C@@H]1CCCN1C(=O)[C@H](C)NC(=O)CNC(=O)[C@H](CO)NC(=O)[C@H](CO)NC(=O)[C@@H]1CCCN1C(=O)CNC(=O)CNC(=O)[C@H](C)NC(=O)[C@H](CC(C)C)NC(=O)[C@H](CC(C)C)NC(=O)[C@H](Cc1c[nH]c2ccccc12)NC(=O)[C@H](CC(N)=O)NC(=O)[C@@H](NC(=O)[C@H](Cc1ccccc1)NC(=O)[C@H](CCC(=O)O)NC(=O)C(C)(C)NC(=O)[C@H](C)NC(=O)[C@H](C)NC(=O)[C@H](CCC(N)=O)NC(=O)[C@H](CCCCN)NC(=O)[C@H](CC(=O)O)NC(=O)[C@H](CC(C)C)NC(=O)[C@H](Cc1ccc(O)cc1)NC(=O)[C@@H](NC(=O)[C@H](CO)NC(=O)[C@H](Cc1ccc(O)cc1)NC(=O)[C@H](CC(=O)O)NC(=O)[C@H](CO)NC(=O)[C@@H](NC(=O)[C@H](Cc1ccccc1)NC(=O)[C@@H](NC(=O)CNC(=O)[C@H](CCC(=O)O)NC(=O)CSCC(=O)NCCN1C(=O)c2cccc3cccc(c23)C1=O)[C@@H](C)O)[C@@H](C)O)[C@@H](C)CC)C(C)C)C(N)=O)C(=O)O [Compound 248] | 105 | 1 to 10 | 80 | 10 to 100 |  |  |  |  |  |  |  |  |  | 
3 | CCCCCCCCCCCCCCCC(=O)N[C@@H](CCC(=O)NCCCC[C@H](NC(=O)[C@H](CO)NC(=O)[C@@H]1CCCN1C(=O)[C@@H]1CCCN1C(=O)[C@@H]1CCCN1C(=O)[C@H](C)NC(=O)CNC(=O)[C@H](CO)NC(=O)[C@H](CO)NC(=O)[C@@H]1CCCN1C(=O)CNC(=O)CNC(=O)[C@H](C)NC(=O)[C@H](CC(C)C)NC(=O)[C@H](CC(C)C)NC(=O)[C@H](Cc1c[nH]c2ccccc12)NC(=O)[C@H](CC(N)=O)NC(=O)[C@@H](NC(=O)[C@H](Cc1ccccc1)NC(=O)[C@H](CCC(=O)O)NC(=O)C(C)(C)NC(=O)[C@H](C)NC(=O)[C@H](C)NC(=O)[C@H](CCC(N)=O)NC(=O)[C@H](CCCCN)NC(=O)[C@H](CC(=O)O)NC(=O)[C@H](CC(C)C)NC(=O)[C@H](Cc1ccc(O)cc1)NC(=O)[C@@H](NC(=O)[C@H](CO)NC(=O)[C@H](Cc1ccc(O)cc1)NC(=O)[C@H](CC(=O)O)NC(=O)[C@H](CO)NC(=O)[C@@H](NC(=O)[C@H](Cc1ccccc1)NC(=O)[C@@H](NC(=O)CNC(=O)[C@H](CCC(=O)O)NC(=O)CSCC(=O)NCCN1C(=O)C[C@H](O)C1=O)[C@@H](C)O)[C@@H](C)O)[C@@H](C)CC)C(C)C)C(N)=O)C(=O)O [Compound 78] | 58 |  | 94 |  | 1 to 10 | 1 to 10 | 58 | 0.1 to 1 | 0.1 to 1 | 94 |  |  |  | 
4 | CCCCCCCCCCCCCCCC(=O)N[C@@H](CCC(=O)NCCCC[C@H](NC(=O)[C@H](CO)NC(=O)[C@@H]1CCCN1C(=O)[C@@H]1CCCN1C(=O)[C@@H]1CCCN1C(=O)[C@H](C)NC(=O)CNC(=O)[C@H](CO)NC(=O)[C@H](CO)NC(=O)[C@@H]1CCCN1C(=O)CNC(=O)CNC(=O)[C@H](C)NC(=O)[C@H](CC(C)C)NC(=O)[C@H](CC(C)C)NC(=O)[C@H](Cc1c[nH]c2ccccc12)NC(=O)[C@H](CC(N)=O)NC(=O)[C@@H](NC(=O)[C@H](Cc1ccccc1)NC(=O)[C@H](CCC(=O)O)NC(=O)C(C)(C)NC(=O)[C@H](C)NC(=O)[C@H](C)NC(=O)[C@H](CCC(N)=O)NC(=O)[C@H](CCCCN)NC(=O)[C@H](CC(=O)O)NC(=O)[C@H](CC(C)C)NC(=O)[C@H](Cc1ccc(O)cc1)NC(=O)[C@@H](NC(=O)[C@H](CO)NC(=O)[C@H](Cc1ccc(O)cc1)NC(=O)[C@H](CC(=O)O)NC(=O)[C@H](CO)NC(=O)[C@@H](NC(=O)[C@H](Cc1ccccc1)NC(=O)[C@@H](NC(=O)CNC(=O)[C@H](CCC(=O)O)NC(=O)CSCC(=O)NCCN1C(=O)CC(c2ccccc2)C1=O)[C@@H](C)O)[C@@H](C)O)[C@@H](C)CC)C(C)C)C(N)=O)C(=O)O (mixture of isomers) [Compound 99] |  |  | 102 |  | > 1000 |  |  | 1 to 10 | 1 to 10 | 102 | 11 | > 1000 |  | 
5 | CCCCCCCCCCCCCCCC(=O)N[C@@H](CCC(=O)NCCCC[C@H](NC(=O)[C@@H](NC(=O)[C@H](Cc1ccccc1)NC(=O)[C@H](CCC(=O)O)NC(=O)C(C)(C)NC(=O)[C@H](C)NC(=O)[C@H](C)NC(=O)[C@H](CCC(N)=O)NC(=O)[C@H](CCCCN)NC(=O)[C@H](CC(=O)O)NC(=O)[C@H](CC(C)C)NC(=O)[C@H](Cc1ccc(O)cc1)NC(=O)[C@@H](NC(=O)[C@H](CO)NC(=O)[C@H](Cc1ccc(O)cc1)NC(=O)[C@H](CC(=O)O)NC(=O)[C@H](CO)NC(=O)[C@@H](NC(=O)[C@H](Cc1ccccc1)NC(=O)[C@@H](NC(=O)CNC(=O)[C@H](CCC(=O)O)NC(=O)CSCC(=O)NCCN1C(=O)CSC1=O)[C@@H](C)O)[C@@H](C)O)[C@@H](C)CC)C(C)C)C(=O)N[C@@H](Cc1c[nH]c2ccccc12)C(=O)N[C@@H](CC(C)C)C(=O)N[C@@H](CC(C)C)C(=O)N[C@@H](C)C(=O)NCC(=O)NCC(=O)N1CCC[C@H]1C(=O)N[C@@H](CO)C(=O)N[C@@H](CO)C(=O)NCC(=O)N[C@@H](C)C(=O)N1CCC[C@H]1C(=O)N1CCC[C@H]1C(=O)N1CCC[C@H]1C(=O)N[C@@H](CO)C(=O)N[C@@H](CCCCN)C(N)=O)C(=O)O [Compound 197] (X2-EGTFTSDYSIYLDKQAA[Aib]EFVK([γGlu-Palmitoyl])WLLAGGPSSGAPPPSK-NH2) | 20 | 100 to 1000 | 95 | 10 to 100 |  |  |  |  |  |  |  |  |  | 
6 | CCCCCCCCCCCCCCCC(=O)N[C@@H](CCC(=O)NCCCC[C@H](NC(=O)[C@H](CO)NC(=O)[C@@H]1CCCN1C(=O)[C@@H]1CCCN1C(=O)[C@@H]1CCCN1C(=O)[C@H](C)NC(=O)CNC(=O)[C@H](CO)NC(=O)[C@H](CO)NC(=O)[C@@H]1CCCN1C(=O)CNC(=O)CNC(=O)[C@H](C)NC(=O)[C@H](CC(C)C)NC(=O)[C@H](CC(C)C)NC(=O)[C@H](Cc1c[nH]c2ccccc12)NC(=O)[C@H](CC(N)=O)NC(=O)[C@@H](NC(=O)[C@H](Cc1ccccc1)NC(=O)[C@H](CCC(=O)O)NC(=O)C(C)(C)NC(=O)[C@H](C)NC(=O)[C@H](C)NC(=O)[C@H](CCC(N)=O)NC(=O)[C@H](CCCCN)NC(=O)[C@H](CC(=O)O)NC(=O)[C@H](CC(C)C)NC(=O)[C@H](Cc1ccc(O)cc1)NC(=O)[C@@H](NC(=O)[C@H](CO)NC(=O)[C@H](Cc1ccc(O)cc1)NC(=O)[C@H](CC(=O)O)NC(=O)[C@H](CO)NC(=O)[C@@H](NC(=O)[C@H](Cc1ccccc1)NC(=O)[C@@H](NC(=O)CNC(=O)[C@H](CCC(=O)O)NC(=O)CSCC(=O)NCCn1ccccc1=O)[C@@H](C)O)[C@@H](C)O)[C@@H](C)CC)C(C)C)C(N)=O)C(=O)O [Compound 52] | 56 to 61 | 1 to 10 | 101 | < 0.1 |  |  | 56 to 61 |  |  | 101 |  |  | 1 to 10 | < 0.1
